From ChEMBL document CHEMBL1201862, “PubChem BioAssay data set” (2004)
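Where inhibition never reached the appropriate level, the endpoint shown equals the highest concentration tested. Otherwise, values were interpolated linearly from a five-concentration, 48-hour dose response in 96-well plates. GI50 marks 50% less growth.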 Active and inactive are the calls of the source. No stated cut-off is given here; in the data, active = GI50 up to about 1.1 µM and inactive = higher.

Columns and labels:
Assay in all cases: NCI tumour cell line growth inhibition, 48 h
HOP-62 = system: HOP-62
HOP-92 = system: HOP-92
NCI-H226 = system: NCI-H226
SK-OV-3 = system: SK-OV-3
SNB-19 = system: SNB-19
TK-10 = system: TK-10
XF498 = system: XF498
SR = system: SR
UO-31 = system: UO-31
786-0 = system: 786-0
BT-549 = system: BT-549
DU-145 = system: DU-145
Hs-578T = system: Hs-578T
MCF7 = system: MCF7
MDA-MB-231 = system: MDA-MB-231
MDA-MB-435 = system: MDA-MB-435
MDA-N = system: MDA-N
NCI/ADR-RES = system: NCI/ADR-RES
PC-3 = system: PC-3
T47D = system: T47D

COC(=O)c1ccc(/C=C2\N=C(C)OC2=O)cc1
GI50 (HOP-62): > 100 µM (inactive) | GI50 (HOP-92): > 100 µM (inactive) | GI50 (NCI-H226): > 100 µM (inactive) | GI50 (SK-OV-3): > 100 µM (inactive) | GI50 (SNB-19): > 100 µM (inactive) | GI50 (TK-10): > 100 µM (inactive) | GI50 (XF498): > 100 µM (inactive)

CNc1ccccc1-c1nc2ccccc2c(=O)o1
GI50 (NCI-H226): > 100 µM (inactive) | GI50 (SK-OV-3): > 100 µM (inactive) | GI50 (SNB-19): > 100 µM (inactive) | GI50 (SR): > 100 µM (inactive) | GI50 (TK-10): > 100 µM (inactive) | GI50 (UO-31): > 100 µM (inactive) | GI50 (XF498): 31 µM (inactive)

C/C(=N\O)C1CC(CC(=O)O)C1(C)C (stereo not given)
GI50 (786-0): > 100 µM (inactive) | GI50 (BT-549): > 100 µM (inactive) | GI50 (DU-145): > 100 µM (inactive) | GI50 (HOP-62): > 100 µM (inactive) | GI50 (HOP-92): > 100 µM (inactive) | GI50 (Hs-578T): > 100 µM (inactive) | GI50 (MCF7): > 100 µM (inactive) | GI50 (MDA-MB-231): > 100 µM (inactive) | GI50 (MDA-MB-435): > 100 µM (inactive) | GI50 (MDA-N): > 100 µM (inactive) | GI50 (NCI-H226): > 100 µM (inactive) | GI50 (NCI/ADR-RES): > 100 µM (inactive) | GI50 (PC-3): > 100 µM (inactive) | GI50 (SK-OV-3): > 100 µM (inactive) | GI50 (SNB-19): > 100 µM (inactive) | GI50 (SR): > 100 µM (inactive) | GI50 (T47D): > 100 µM (inactive) | GI50 (TK-10): > 100 µM (inactive) | GI50 (UO-31): > 100 µM (inactive)

COc1cccc(NC(=O)CC(=O)n2nc(-c3ccccc3)c(/N=N/c3ccc(Cl)cc3)c2-c2ccccc2)c1
GI50 (786-0): 14.4 µM (inactive) | GI50 (BT-549): 11.8 µM (inactive) | GI50 (DU-145): 25.3 µM (inactive) | GI50 (HOP-62): 15.2 µM (inactive) | GI50 (HOP-92): 18.7 µM (inactive) | GI50 (Hs-578T): 26.2 µM (inactive) | GI50 (MCF7): 7.57 µM (inactive) | GI50 (MDA-MB-231): 21.3 µM (inactive) | GI50 (MDA-MB-435): 38.7 µM (inactive) | GI50 (MDA-N): 38.8 µM (inactive) | GI50 (NCI-H226): 20.3 µM (inactive) | GI50 (NCI/ADR-RES): 19.5 µM (inactive) | GI50 (PC-3): 27.9 µM (inactive) | GI50 (SK-OV-3): 5.33 µM (inactive) | GI50 (SNB-19): 17.8 µM (inactive) | GI50 (SR): 11 µM (inactive) | GI50 (T47D): 13.9 µM (inactive) | GI50 (TK-10): 64.1 µM (inactive) | GI50 (UO-31): 10.2 µM (inactive)

CSCC(CO)NC(=O)/C=C/c1c(C)[nH]c(=O)[nH]c1=O (stereo not given)
GI50 (HOP-62): 596 µM (inactive) | GI50 (HOP-92): 318 µM (inactive) | GI50 (MCF7): 40.3 µM (inactive) | GI50 (NCI-H226): 752 µM (inactive) | GI50 (NCI/ADR-RES): 621 µM (inactive) | GI50 (SK-OV-3): 641 µM (inactive) | GI50 (SNB-19): 791 µM (inactive) | GI50 (UO-31): 557 µM (inactive) | GI50 (XF498): 311 µM (inactive)

CN(C)C(=O)C1CCC(=C2C(=O)OC(C)(C)OC2=O)N1C (stereo not given)
GI50 (786-0): > 100 µM (inactive) | GI50 (HOP-62): > 100 µM (inactive) | GI50 (HOP-92): > 100 µM (inactive) | GI50 (NCI-H226): > 100 µM (inactive) | GI50 (SK-OV-3): > 100 µM (inactive) | GI50 (SNB-19): > 100 µM (inactive) | GI50 (TK-10): > 100 µM (inactive) | GI50 (UO-31): > 100 µM (inactive) | GI50 (XF498): > 100 µM (inactive)

CC1OC(O)CC(OC(=O)c2ccccc2)C1OC(=O)c1ccccc1 (stereo not given)
GI50 (786-0): 29.4 µM (inactive) | GI50 (HOP-62): 71.6 µM (inactive) | GI50 (HOP-92): 20 µM (inactive) | GI50 (SNB-19): 90.4 µM (inactive) | GI50 (SR): 13.2 µM (inactive) | GI50 (TK-10): > 100 µM (inactive) | GI50 (XF498): 19.9 µM (inactive)

CC(C)=CC(=O)OC1C2C(C)=CC(O)C(O)C2(C)C2C3(O)OCC24C(CC(=O)OC14)C(C)C3O (stereo not given)
GI50 (HOP-62): 0.168 µM (active) | GI50 (HOP-92): 0.0552 µM (active) | GI50 (MCF7): 0.0269 µM (active) | GI50 (NCI-H226): 0.106 µM (active) | GI50 (NCI/ADR-RES): 17.5 µM (inactive) | GI50 (SK-OV-3): 3.13 µM (inactive) | GI50 (SNB-19): 0.14 µM (active) | GI50 (UO-31): 2.32 µM (inactive) | GI50 (XF498): 0.122 µM (active)

N[C@@H](CSCSC[C@H](N)C(=O)O)C(=O)O
GI50 (HOP-62): > 225 µM (inactive) | GI50 (HOP-92): > 169 µM (inactive) | GI50 (MCF7): > 225 µM (inactive) | GI50 (NCI-H226): > 225 µM (inactive) | GI50 (NCI/ADR-RES): > 104 µM (inactive) | GI50 (SK-OV-3): > 225 µM (inactive) | GI50 (SNB-19): 174 µM (inactive) | GI50 (UO-31): > 225 µM (inactive) | GI50 (XF498): > 225 µM (inactive)
